These results are taken from patent US11242344B2, “(4-hydroxypyrrolidin-2-yl)-heterocyclic compounds and methods of use thereof” (Genentech, Inc., priority 2017, dated 2022).

For this experiment, the target named is NanoLuc VHL fusion protein (Homo sapiens (Human), UniProt P40337). The experiment is described as follows: VHL HEK-293 BRET Assay (NanoBRET Target Engagement). It counts as cell-based. To be noted: geometric mean where more than one measurement. The essentials: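 HEK293 cells stably expressing NanoLuc-VHL, 2 h with compound titration and 1 uM final tracer, then Nano-Glo substrate plus extracellular NanoLuc inhibitor. BRET ratio 610/460 nm, background-corrected with no-tracer wells, normalised to DMSO and 10 uM unlabeled VHL antagonist controls; IC50 by four-parameter fit.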
On the technique in general: In BRET a luciferase serves as donor, and the signal depends on an acceptor being close.

Chain of NanoLuc VHL fusion protein (P40337 whole entry, looked up, the tested form may be a part): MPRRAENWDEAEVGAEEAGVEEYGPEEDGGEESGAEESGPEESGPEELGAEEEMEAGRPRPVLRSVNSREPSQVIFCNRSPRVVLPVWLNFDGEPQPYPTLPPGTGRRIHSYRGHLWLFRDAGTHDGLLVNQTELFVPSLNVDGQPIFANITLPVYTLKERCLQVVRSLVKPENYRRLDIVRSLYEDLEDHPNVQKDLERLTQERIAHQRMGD
Chain of NanoLuc VHL fusion protein (Q15370 whole entry partner, looked up, the tested form may be a part): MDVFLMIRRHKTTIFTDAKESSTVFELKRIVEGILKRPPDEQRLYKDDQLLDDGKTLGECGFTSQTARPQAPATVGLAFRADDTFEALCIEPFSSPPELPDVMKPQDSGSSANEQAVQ
Chain of NanoLuc VHL fusion protein (Q15369 whole entry partner, looked up, the tested form may be a part): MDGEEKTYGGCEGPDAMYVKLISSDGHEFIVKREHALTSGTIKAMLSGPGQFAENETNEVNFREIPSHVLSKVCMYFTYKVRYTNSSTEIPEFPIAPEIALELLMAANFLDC

`Cc1ncsc1-c1ccc([C@]2(C)NC(C3C[C@@H](O)CN3C(=O)[C@@H](NC(=O)CCCCCCCCCCNC(=O)c3cc4c(cc3CS(C)(=O)=O)-c3cn(C)c(=O)c5[nH]cc(c35)CN4c3ncc(F)cc3F)C(C)(C)C)=NC2=O)cc1` (single isomer, unassigned) [Example 1005.1] displayed an IC50 of 64.6 µM.

The IC50 is the midpoint of a concentration-inhibition curve.
